Measured values reported in US11542266B1, “Substituted piperidines as BTK inhibitors” (HAISCO PHARMACEUTICALS PTE. LTD., priority 2019, dated 2023).

Tests used:
[1] = Pharmacokinetic experiment in rats (i.g. vehicle DMSO/Solutol/PEG-400/SBE-β-CD); format: in vivo; conditions: Sprague-Dawley (SD), rat, plasma, po, male SD rats
Procedure: (§1) Objective: In this experiment, a single dose of each test compound was administered to SD rats intravenously and intragastrically, the concentrations of the test compound in plasma of rats were measured, and the pharmacokinetic characteristics and bioavailability of the test compound in rats were evaluated.
Experimental animals: Male SD rats, 200-250 g, 6-8 weeks old, 6 rats/compound. The experimental animals were purchased from CHENGDU DOSSY EXPERIMENTAL ANIMALS CO., LTD.
Experimental method: On the day of the experiment, 6 SD rats were randomly grouped according to their body weight. The animals were fasted with water available for 12 to 14 hours one day before the administration of a test compound, and were fed 4 hours after the administration.
Sampling: Before and after the administration, 0.1 mL of blood was taken from the orbit of the rats under isoflurane anesthesia, and placed in an EDTAK2 centrifuge tube. Centrifugation was carried out at 5000 rpm at 4° C. for 10 min and the plasma was collected.
Time points for plasma collection in G1 group: 0, 5 min, 15 min, 30 min, 1 h, 2 h, 4 h, 6 h, 8 h, and 24 h.
Time points for plasma collection in G2 group: 0, 15 min, 30 min, 1 h, 2 h, 4 h, 6 h, 8 h, and 24 h.
(§2) Before analysis and detection, all samples were stored at −80° C. The samples were analyzed quantitatively by LC-MS/MS.

SU-DHL-4 cells = assay: Inhibition of cell proliferation, SU-DHL-4 cells (Cell Viability Assay, 72 h); format: cell-based, human; conditions: Homo sapiens
Procedure, shortened: (§3)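 RPMI1640 + 10% FBS cultures seeded at 20000/well (SU-DHL-4) or 5000/well (Mino, SU-DHL-6), exposed to compound dilutions in triplicate for 72 h at 37 °C, 5% CO2, DMSO vehicle control. Viability read by luminescent reagent; IC50 from dose-response and Max inhi. % = (1 − T72 treated/T72 vehicle)×100 at top concentration.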

SU-DHL-6 cells = assay: Inhibition of cell proliferation, SU-DHL-6 cells (Cell Viability Assay, 72 h); format: cell-based; conditions: Homo sapiens
Procedure, shortened: as §3

OCI-LY10 cells = assay: Inhibition of cell proliferation, OCI-LY10 cells (Cell Viability Assay, 72 h); format: cell-based; conditions: Homo sapiens
Procedure: (§4) OCI-LY10 and TMD-8 cells, in the culture medium of RPMI1640+10% FBS, were cultured in an incubator at 37° C. under 5% CO2. Cells were plated in a 96-well plate. Specifically, OCI-LY10 cells were at 10000/well, and TMD-8 cells were at 8000/well, with 90 μL/well. These cells were cultured at 37° C. under 5% CO2 overnight. On the next day, 10 μL of the compounds at different concentrations were added to each well. There were 3 replicate wells for each concentration, and the last column, added with DMSO, was used as a vehicle control group. The cultures were continued for 72 hours at 37° C. under 5% CO2. After 72 hours, 50 μL of detection reagent (Cell Viability Assay, Promega, G7573) was added to each well, and the cultures were uniformly mixed for 2 minutes, and incubated at room temperature for 10 minutes. The fluorescence signal value was measured with an Envision2104 plate reader (PerkinElmer). The inhibition rate was calculated using formula (2), wherein RLUcompound was the readout of the drug treated group, RLUcontrol was the average value of the vehicle control group, and RLUblank was the average value of the cell-free wells. The IC50 value was calculated using GraphPad Prism software. IR (%)=(1−(RLUcompound-RLUblank)/(RLUcontrol-RLUblank))*100% formula (2)

TMD-8 cells = assay: Inhibition of cell proliferation, TMD-8 cells (Cell Viability Assay, 72 h); format: cell-based; conditions: Homo sapiens, TMD8
Procedure: as §4

BTK protein = BTK protein (Mus musculus (Mouse), UniProt P35991); assay: Detection of BTK protein degradation in spleen of mice; format: in vivo; conditions: po, 72 h, female ICR mice, 3 consecutive days of intragastric administration, read-out: DD50 value of compounds on BTK protein degradation in spleen of mice
Sequence of BTK protein (P35991 whole entry): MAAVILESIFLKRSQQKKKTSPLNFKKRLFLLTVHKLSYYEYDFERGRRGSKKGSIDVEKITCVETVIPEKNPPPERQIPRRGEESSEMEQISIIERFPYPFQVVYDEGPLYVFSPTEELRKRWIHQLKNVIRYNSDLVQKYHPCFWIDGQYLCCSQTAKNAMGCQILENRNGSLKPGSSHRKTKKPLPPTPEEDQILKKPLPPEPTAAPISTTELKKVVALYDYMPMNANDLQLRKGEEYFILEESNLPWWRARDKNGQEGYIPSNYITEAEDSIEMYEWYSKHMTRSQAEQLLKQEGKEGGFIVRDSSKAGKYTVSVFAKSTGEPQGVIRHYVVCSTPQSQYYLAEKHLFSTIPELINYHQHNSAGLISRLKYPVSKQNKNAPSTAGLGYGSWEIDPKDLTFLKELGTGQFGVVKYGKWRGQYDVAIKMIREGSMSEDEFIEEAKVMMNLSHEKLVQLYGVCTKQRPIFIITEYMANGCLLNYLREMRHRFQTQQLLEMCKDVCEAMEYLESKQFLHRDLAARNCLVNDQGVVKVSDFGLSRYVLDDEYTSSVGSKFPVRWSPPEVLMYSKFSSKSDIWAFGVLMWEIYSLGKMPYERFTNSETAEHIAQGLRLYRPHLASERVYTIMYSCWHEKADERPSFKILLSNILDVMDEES
Procedure: Female ICR mice, 6-8 weeks old, were purchased from BEIJING VITAL RIVER LABORATORY ANIMAL TECHNOLOGY CO., LTD, and the experiment was started after 3 days of adaptation. After 3 consecutive days of intragastric administration of different doses of the compound, the spleen of mice was taken, the spleen cells were collected, and RIPA lysis buffer (Beyotime, Cat. P0013B) was added. The cells were lysed on ice for 15 minutes, and centrifuged at 12000 rpm at 4° C. for 10 minutes. The protein sample of the supernatant was collected, and the protein was quantified by using the BCA kit (Beyotime, Cat. P0009), and then the protein was diluted to 0.25 mg/mL. The expressions of BTK (CST, Cat. 8547S) and the internal reference β-actin (CST, Cat. 3700S) were detected using a fully automated western blot quantitative analyzer (Proteinsimple). The expression level of BTK relative to the internal reference was calculated using Compass software, and the DD50 value was calculated using Origen9.2 software according to formula (4). Specifically, the BTKadministration denoted the expression level of BTK in administration groups at different doses, and the BTKvehicle denoted the expression level of BTK in the vehicle control group. BTK %=BTKadministration/BTKvehicle×100 formula (4)

Mino cells = assay: Inhibition of cell proliferation, Mino cells (Cell Viability Assay, 72 h); format: cell-based, human; conditions: Homo sapiens
Procedure, shortened: as §3

[2] = Pharmacokinetic experiment in rats (i.g. vehicle 0.5% MC); format: in vivo; conditions: Sprague-Dawley (SD), rat, plasma, po, male SD rats
Procedure, shortened: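 Male SD rats (200–250 g, 6–8 weeks, n=6 per compound) were dosed once i.v. or intragastrically after a 12–14 h fast and fed 4 h post-dose. Orbital blood was drawn into EDTA-K2 tubes at 0–24 h (from 5 min i.v., from 15 min oral). Plasma was quantified by LC-MS/MS for PK parameters and bioavailability.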

[3] = Pharmacokinetic experiment in mice; format: in vivo; conditions: mouse, plasma, male ICR mice
Procedure: as §1, with “ICR mice” for “SD rats”, “mice” for “rats”
Experimental animals: Male ICR mice, 20-25 g, 6-8 weeks old, 24 mice/compound. The experimental animals were purchased from CHENGDU DOSSY EXPERIMENTAL ANIMALS CO., LTD.
Experimental method: On the day of the experiment, 24 ICR mice were randomly grouped according to their body weight. The animals were fasted with water available for 12 to 14 hours one day before the administration of a test compound, and were fed 4 hours after the administration.
Sampling: Before and after the administration, 0.06 ml of blood was taken from the orbit of the mice under isoflurane anesthesia, and placed in an EDTAK2 centrifuge tube. Centrifugation was carried out at 5000 rpm at 4° C. for 10 min and the plasma was collected.
Time points for plasma collection in G1 group: 0, 5 min, 15 min, 30 min, 1 h, 2 h, 4 h, 6 h, 8 h, and 24 h;
Time points for plasma collection in G2 group: 0, 15 min, 30 min, 1 h, 2 h, 4 h, 6 h, 8 h, and 24 h;
as §2

Nc1ncnc2c1c(-c1ccc(Oc3ccccc3)cc1)nn2[C@H]1CCN(C2CCN(C3CN(c4ccc5c(c4)C(=O)N(C4CCC(=O)NC4=O)C5=O)C3)CC2)C[C@H]1F (stereo partly drawn) [Compound 42, 5-(3-((3R,4S)-4-(4-amino-3-(4-phenoxyphenyl)-1H-pyrazolo[3,4-d]pyrimidin-1-yl)-3-fluoro-[1,4′-bipiperidin]-1′-yl)azetidin-1-yl)-2-(2,6-dioxopiperidin-3-yl)isoindoline-1,3-dione] gave a bioavailability ([1]; i.g. 20 mg/kg (DMSO/Solutol/PEG-400/SBE-β-CD) vs i.v. 5 mg/kg) of 9.14 ± 2.5%, an AUC(0-t) ([1]; i.g. 20 mg/kg, vehicle 5% DMSO + 5% Solutol + 30% PEG-400 + 60% (20%SBE-β-CD)) of 1200 ± 327 ng·h/mL and an IC50 (SU-DHL-4 cells) of 382 nM. The IC50 (SU-DHL-6 cells) was 177 nM, the IC50 (OCI-LY10 cells) was 3 nM and the IC50 (TMD-8 cells) was 16 nM. It also gave an ED50 (BTK protein) of 1.9 mg/kg and an IC50 (Mino cells) of 15 nM.
With Nc1ncnc2c1c(-c1ccc(Oc3ccccc3)cc1)nn2C1CCN(C2CN(C3CN(c4ccc5c(c4)C(=O)N(C4CCC(=O)NC4=O)C5=O)C3)C2)CC1 (stereo not drawn) [Compound 17, 5-[3-[3-[4-[4-amino-3-(4-phenoxyphenyl)pyrazolo[3,4-d]pyrimidin-1-yl]-1-piperidyl]azetidin-1-yl]azetidin-1-yl]-2-(2,6-dioxo-3-piperidyl)isoindoline-1,3-dione] the bioavailability ([2]; i.g. 20 mg/kg (0.5% MC) vs i.v. 5 mg/kg) was 6.57 ± 0.77%, the AUC(0-t) ([2]; i.g. 20 mg/kg, vehicle 0.5% MC, read-out: AUC0-t) was 2340 ± 274 ng·h/mL and the IC50 (SU-DHL-4 cells) was 367 nM. The IC50 (SU-DHL-6 cells) was 744 nM, the IC50 (OCI-LY10 cells) was 5 nM and the IC50 (TMD-8 cells) was 22 nM. It also gave an ED50 (BTK protein) of 3.8 mg/kg, a bioavailability ([3]; oral, i.g. 10 mg/kg vs i.v. 5 mg/kg) of 10.8% and an AUC(0-t) ([3]; po, i.g. 10 mg/kg, vehicle 0.5% MC) of 2430 ng·h/mL. For the same compound, the IC50 (Mino cells) was 20 nM.
